Laboratory results published in patent publication US20210346388A1, “CDC7-Inhibiting Purine Derivatives and their use for the Treatment of Neurological Conditions” (CONSEJO SUPERIOR DE INVESTIGACIONES CIENTIFICAS (CSIC), priority 2018, published 2021).

Columns and labels:
[1] = PAMPA-BBB permeability (porcine brain lipid artificial membrane); format: in vitro ADME; set-up: key to PAMPA prediction of the penetration into the central nervous system (CNS): permeable to the BBB (CNS+) if it has a permeability >4.48×10^−6 cm·s^−1; CNS+/−: located in the zone of uncertainty; settings: for Papp at 2.5 h: pig, PAMPA, porcine brain lipid, PBS pH 7.4/EtOH 70:30, 2 h 30 min at 25° C., mean ± SD, read-out: Pe (permeability, PAMPA-BBB); for PAMPA prediction of the penetration into the central nervous system (CNS): prediction from Pe, PAMPA-BBB
Text: An essential requirement that must be met by drugs for the treatment of neurodegenerative diseases is the ability to cross the blood-brain barrier (BBB) since, otherwise, they could not act on the target of interest. Therefore, for the compounds that are non-permeable or located in the zone of uncertainty, it could be necessary for them to be suitably conveyed in a pharmaceutical formulation by means of methods known by those skilled in the art, such as by means of encapsulation. This ability can be predicted in vitro by using a method known by the acronym PAMPA (Parallel Artificial Membrane Permeability Assay) described by Di et al. (Di, L.; Kerns, E. H.; Fan, K.; McConnell, O. J.; Carter, G. T. Eur. J. Med. Chem., 2003, 38 (3), 223-232) and that has subsequently been fine-tuned in our research group. Said method enables the effective permeability through artificial membranes to be predicted by means of a passive diffusion process.
First, it is necessary to validate the method, for which reason 10 commercial compounds, whose ability to penetrate the central nervous system (CNS) is known, are used and will be specified below, obtaining in this case good linear correlation between the experimental permeability values (Pe) and those described (FIG. 1). This correlation line obtained following the pattern described in the literature makes it possible to establish the limits for predicting whether a compound can cross the blood-brain barrier or not. Thus, a compound is considered to be permeable to the BBB (CNS+) if it has a permeability >4.48×10^−6 cm·s^−1.
For the procedure, between 3-5 mg of caffeine, desipramine, enoxacin, hydrocortisone, ofloxacin, piroxicam and testosterone, 12 mg of promazine and 25 mg of atenolol and verapamil were taken and dissolved in EtOH (1000 μl). 100 μl of these solutions were taken and EtOH (1400 μl) and phosphate buffer (PBS) pH=7.4 (3500 μl) were added in order to reach a final EtOH concentration of 30% v/v in solution. Lastly, the solutions were filtered.
Moreover, a solution of PBS/EtOH (70:30) was added to each well of the acceptor plate (180 μl). The donor plate was impregnated with a solution of porcine brain lipid (4 μl) dissolved in dodecane (20 mg·ml^−1). After 5 min, a solution of each compound was added on this plate (180 μl).
Of the compounds evaluated, between 1-2 mg were taken and dissolved in EtOH (1500 μl) and phosphate buffer (PBS) pH=7.4 (3500 μl), filtered and added to the donor plate. With these solutions, the wavelengths at which they absorb the compounds are determined and the initial absorbance levels at these wavelengths are measured by using a UV absorbance reader. Each sample was analysed at two to five wavelengths, in three wells and in two independent experiments.
Next, the donor plate was deposited on the acceptor plate forming a sort of “sandwich” and they were left to incubate for 2 h and 30 min at 25° C. Thus, the compounds will pass from the donor plate to the acceptor plate through the porcine brain lipid by means of passive diffusion. After that time, the donor plate is carefully removed and the final concentration and absorbance of both the commercial and the synthesised compounds are determined. The results obtained are expressed as the mean of the measurements [standard deviation (SD)] of the different experiments performed and are recorded in Table 2.

[2] = molecular target: recombinant human Cdc7/DBF4 (Homo sapiens, UniProt O00311); experiment: LanthaScreen Eu Kinase Inhibition Assay (Cdc7 inhibition); format: binding; settings: recombinant human Cdc7/DBF4 0.5 nM, 60 min room temperature, 1% DMSO; read-out: Cdc7 CI50
Text: The LanthaScreen Eu Kinase Inhibition Assay uses an Alexa Fluor™ marker which binds to a kinase and is detected by the addition of an Eu-labelled antibody. The binding of the marker and the antibody to the kinase results in a high degree of FRET, whereas the displacement of the marker by an inhibitor results in a loss of FRET. Unlike many other kinase activity assays, this is a simple mix and read assay, without stages of development. This assay method has been developed by “Life Technologies” and they identify competitive ATP kinase inhibitors, making them suitable for the detection of any compound which binds to the ATP site.
The compounds are evaluated in 1% DMSO (final) in the well. A mixture of recombinant human Cdc7/DBF4 (0.5 nM), Eu-anti-GST antibody (2 nM) and Alexa Fluor marker (1 nM) in a buffer of 50 mM HEPES pH 7.5, 0.01% BRIJ-35, 10 mM MgCl2, 1 mM EGTA was used. In white plates with […], with a low volume, and coded (Greiner cat. #784207), 160 nL (100×compound in 100% DMSO), 3.84 μl (buffer with Cdc7/DBF4), […] (antibody), 4.0 μl (marker) are added. It is stirred for 30 s and incubated at room temperature for 60 min. Next, the fluorescence is measured in the plate reader and the data is analysed (Table 1).

[3] = test system: SH-SY5Y human neuroblastoma cell line; experiment: cells; format: cell-based
Protocol: The data represents the mean of four different experiments ±SEM (*p<0.05).
The SH-SY5Y human neuroblastoma cell line was grown at 37° C. with 5% CO2 in DMEN (Dulbecco's Modified Eagle Medium) enriched with L-glutamine (2 mM), 1% non-essential amino acids, 1% Penicillin/Streptomycin and 10% foetal bovine serum. In the state of semi-confluence, the cells were treated with the Cdc7 inhibitor (compound 3) at different concentrations for 1.30 hours post-addition of the causative agent of the TDP-43 phosphorylation; ethacrynic acid (20 μM) (Sigma). At 24 hours, the cellular viability was evaluated with MTT ([3-(4,5-dimethylthiazol-2-yl)-2,5-diphenyltetrazolium bromide) following a described procedure (Denizot F, Lang R. J Immunol Methods. 1987; 89:271-7).

Chain of recombinant human Cdc7/DBF4 (O00311 whole entry): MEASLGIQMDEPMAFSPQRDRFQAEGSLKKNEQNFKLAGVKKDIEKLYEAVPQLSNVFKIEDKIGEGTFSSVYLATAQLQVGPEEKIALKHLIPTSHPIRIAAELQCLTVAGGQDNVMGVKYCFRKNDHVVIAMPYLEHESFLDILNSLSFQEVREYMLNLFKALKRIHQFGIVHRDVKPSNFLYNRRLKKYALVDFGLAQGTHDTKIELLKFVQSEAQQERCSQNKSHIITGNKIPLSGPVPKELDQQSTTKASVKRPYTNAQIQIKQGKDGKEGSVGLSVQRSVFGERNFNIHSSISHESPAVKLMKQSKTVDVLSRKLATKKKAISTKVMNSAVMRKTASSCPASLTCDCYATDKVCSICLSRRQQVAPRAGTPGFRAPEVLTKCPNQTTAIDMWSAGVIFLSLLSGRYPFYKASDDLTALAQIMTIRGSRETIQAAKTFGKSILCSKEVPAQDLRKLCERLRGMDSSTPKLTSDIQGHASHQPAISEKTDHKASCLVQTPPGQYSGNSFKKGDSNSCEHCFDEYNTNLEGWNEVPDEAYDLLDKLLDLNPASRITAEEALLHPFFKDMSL
Chain of recombinant human Cdc7/DBF4 (Q9UBU7 whole entry partner): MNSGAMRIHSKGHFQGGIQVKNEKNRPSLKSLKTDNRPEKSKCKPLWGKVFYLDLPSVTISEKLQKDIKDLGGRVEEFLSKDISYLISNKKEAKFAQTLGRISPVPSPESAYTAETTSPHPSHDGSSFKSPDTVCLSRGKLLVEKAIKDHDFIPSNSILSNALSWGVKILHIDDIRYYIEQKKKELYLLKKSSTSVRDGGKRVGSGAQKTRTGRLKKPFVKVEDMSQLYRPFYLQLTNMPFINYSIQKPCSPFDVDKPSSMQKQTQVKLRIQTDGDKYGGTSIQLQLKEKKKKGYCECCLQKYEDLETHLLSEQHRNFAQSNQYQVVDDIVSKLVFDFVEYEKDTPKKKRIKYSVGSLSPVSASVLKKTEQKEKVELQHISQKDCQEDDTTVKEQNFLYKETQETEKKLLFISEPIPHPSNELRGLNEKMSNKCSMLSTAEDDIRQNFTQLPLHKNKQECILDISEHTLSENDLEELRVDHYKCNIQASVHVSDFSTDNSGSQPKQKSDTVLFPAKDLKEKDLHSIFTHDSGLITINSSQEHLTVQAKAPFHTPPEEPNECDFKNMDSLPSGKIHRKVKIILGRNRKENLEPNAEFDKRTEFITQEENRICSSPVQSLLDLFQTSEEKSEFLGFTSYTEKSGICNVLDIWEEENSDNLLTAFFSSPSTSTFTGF

Row | SMILES | Papp at 2.5 h [1] | PAMPA prediction of the penetration into the central nervous system (CNS) [1] | IC50 [2] | Reversal of cell death caused by ethacrynic acid (neuroprotective effect, MTT viability) ([3]; SH-SY5Y cells, ethacrynic acid 20 μM, inhibitor at 10 μM, viability at 24 hours) | mortality at 20 µM ([3]; Homo sapiens, SH-SY5Y, 24 h, read-out: Cell mortality due to excess TDP-43 phosphorylation)
1 | COc1cccc(C(=O)CSc2ncnc3[nH]cnc23)c1 [compound 4, 1-(3-methoxyphenyl)-2-((9H-purin-6-yl)thio)-ethan-1-one] | 2.4 ± 1 ×10⁻⁶ cm/s | CNS+/− | 1710 nM | – | –
2 | O=C(CSc1ncnc2[nH]cnc12)c1ccc2ccccc2c1 [compound 3, 1-(naphthalen-2-yl)-2-((9H-purin-6-yl)thio)-ethan-1-one] | 9.6 ± 0.8 ×10⁻⁶ cm/s | CNS+ (permeable to the BBB (CNS+) if it has a permeability >4.48×10^−6 cm·s^−1) | 698 nM | this death is reversed | –
3 | c1ccc(CSc2ncnc3[nH]ccc23)cc1 [compound 10, 4-(benzylthio)-7H-pyrrolo[2,3-d]pyrimidine] | 4.5 ± 1.2 ×10⁻⁶ cm/s | CNS+ (permeable to the BBB (CNS+) if it has a permeability >4.48×10^−6 cm·s^−1) | 234 nM | – | –
4 | Fc1ccc(CCSc2ncnc3[nH]cnc23)cc1 [compound 9, 6-((4-fluorophenethyl)thio)-9H-purine] | 10.2 ± 0.5 ×10⁻⁶ cm/s | CNS+ (permeable to the BBB (CNS+) if it has a permeability >4.48×10^−6 cm·s^−1) | 397 nM | – | –
5 | Clc1cccc(CCSc2ncnc3[nH]cnc23)c1 [compound 7, 6-((3-chlorophenethyl)thio)-9H-purine] | 10.6 ± 0.5 ×10⁻⁶ cm/s | CNS+ (permeable to the BBB (CNS+) if it has a permeability >4.48×10^−6 cm·s^−1) | 305 nM | – | –
6 | COc1ccc(C(=O)CSc2ncnc3[nH]cnc23)cc1 [compound 2, 1-(4-methoxyphenyl)-2-((9H-purin-6-yl)thio)-ethan-1-one] | 2.5 ± 0.1 ×10⁻⁶ cm/s | CNS+/− | 1080 nM | – | –
7 | O=C(CSc1ncnc2[nH]cnc12)c1ccc(I)cc1 [compound 5, 1-(4-iodophenyl)-2-((9H-purin-6-yl)thio)-ethan-1-one] | 10.5 ± 1.2 ×10⁻⁶ cm/s | CNS+ (permeable to the BBB (CNS+) if it has a permeability >4.48×10^−6 cm·s^−1) | 380 nM | – | –
8 | C=C(CC)C(=O)c1ccc(OCC(=O)O)c(Cl)c1Cl [ethacrynic acid, reference compound] | – | – | – | – | 40%
9 | Clc1ccc(CCSc2ncnc3[nH]cnc23)cc1 [compound 6, 6-((4-chlorophenethyl)thio)-9H-purine] | 25.1 ± 1.3 ×10⁻⁶ cm/s | CNS+ (permeable to the BBB (CNS+) if it has a permeability >4.48×10^−6 cm·s^−1) | 142 nM | – | –
10 | Clc1ccccc1CCSc1ncnc2[nH]cnc12 [compound 8, 6-((2-chlorophenethyl)thio)-9H-purine] | 11.6 ± 0.5 ×10⁻⁶ cm/s | CNS+ (permeable to the BBB (CNS+) if it has a permeability >4.48×10^−6 cm·s^−1) | – | – | –
